Results taken from patent US9914869B2, “System and method for inhibiting scale formation in oil wells” (GLOBAL GREEN PRODUCTS LLC, priority 2012, dated 2018).

Assay: Scale inhibitor comparison: static bottle test (barium sulfate) and dynamic tube block test (calcium carbonate)
Details: barium sulfate / calcium carbonate scale inhibition; table does not say which scale
Excerpt: These types of chemistries may be used as a comparison when evaluating one or more new scale inhibitors, such as the various aspartic acid based polymers.

Row | Molecule | Approximate effective Concentration [ppm]
1 | O=P(O)(O)CN(CCCCCCN(CP(=O)(O)O)CP(=O)(O)O)CCCCCCN(CP(=O)(O)O)CP(=O)(O)O [BHMT Phosphonate] | 2
2 | diethylenetriamine (DETA) phosphonates [DETA Phosphonate] | 2
